Test systems include DU-145; MDA-N; SF-295; SK-MEL-5; OVCAR-5; EKVX; MOLT-4; OVCAR-3; KM12; A498; M14; UO-31; HOP-92; NCI-H460; SN12C; K562; HCT-15; MDA-MB-231; SW-620; SK-MEL-2.
What all share (test): DTP human tumour cell line panel, 48 h

Each structure is given as a SMILES string.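 Values below derive from 48-hour exposures of cells grown in 96-well plates, with endpoints linearly interpolated between the two concentrations bracketing the appropriate inhibition level. Here, GI50 denotes the concentration required for 50% inhibition of growth.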 Calls of active or inactive are those of the source. Cut-off read from the data, not from the text of the source: active = GI50 up to about 1.1 µM and inactive = higher.

On to `Clc1ccc(Nc2ncco2)cc1Cl`, for which the GI50 in the test on DU-145, with MDA-N, in the test on SF-295, in the test on SK-MEL-5, in the test on OVCAR-5 and in the test with EKVX was > 10 µM (inactive) in each case. Further, the GI50 in the test with MOLT-4, in the test with OVCAR-3, in the test on KM12, in the test on A498, in the test on M14 and with UO-31 was > 10 µM (inactive) each time. Besides, the GI50 with HOP-92 is > 10 µM (inactive); in the test on NCI-H460, > 10 µM (inactive); with SN12C, > 10 µM (inactive); with K562 it was > 10 µM (inactive); in the test on HCT-15, more than 10 µM; in the test on MDA-MB-231, > 10 µM (inactive). For the same compound, the GI50 with SW-620 is > 10 µM (inactive).
In the case of `COc1ccc(OC)c(C[P+](c2ccccc2)(c2ccccc2)c2ccccc2)c1`, the GI50 in the test with DU-145 was 3.27 µM (inactive); with MDA-N it was 0.753 µM (active); with SF-295, 3.96 µM (inactive); in the test with SK-MEL-5, 0.991 µM (active); in the test with OVCAR-5, 5.27 µM (inactive); in the test on EKVX it was 10.6 µM (inactive). Besides, the GI50 in the test on MOLT-4 was 3.42 µM (inactive); with OVCAR-3, 2.54 µM (inactive); in the test with KM12 it was 1.11 µM (active); in the test on A498, 4.36 µM (inactive); in the test on M14 it was 2.42 µM (inactive); with UO-31, 21.6 µM (inactive). Besides, the GI50 with HOP-92 is 0.792 µM (active); with NCI-H460, 3.84 µM (inactive); with SN12C, 5.89 µM (inactive); in the test on K562, 0.445 µM (active); in the test with HCT-15, 18.5 µM; with MDA-MB-231, 3.27 µM (inactive). The GI50 in the test with SW-620 was 2.61 µM (inactive).
As for `CC(=O)c1nc(C#N)c(N)o1`, the GI50 in the test with DU-145, in the test on MDA-N, with SF-295, in the test on OVCAR-5, in the test on SK-MEL-2 and with EKVX was > 100 µM (inactive) throughout. The GI50 in the test with MOLT-4, in the test with OVCAR-3, in the test on KM12, in the test with A498, in the test with M14 and in the test with UO-31 was > 100 µM (inactive) each time. For the same compound, the GI50 with HOP-92 is > 100 µM (inactive); with NCI-H460 it was > 100 µM (inactive); with SN12C it was > 100 µM (inactive); with K562 it was > 100 µM (inactive); in the test on HCT-15 it was more than 100 µM; with MDA-MB-231 it was > 100 µM (inactive). Besides, the GI50 in the test on SW-620 was > 100 µM (inactive).
Consider `N#CCCN(CCC#N)c1ccc(/C=N\c2ccc(F)cc2)cc1`, for which the GI50 in the test on DU-145 is > 100 µM (inactive); with MDA-N, 71.3 µM (inactive); in the test on SF-295 it was 12.3 µM (inactive); with SK-MEL-5 it was 14.5 µM (inactive); in the test on SK-MEL-2, > 16.1 µM (inactive); with EKVX it was > 100 µM (inactive). Also, the GI50 is > 19.8 µM (inactive) with MOLT-4; > 79.1 µM (inactive) in the test with OVCAR-3; > 100 µM (inactive) in the test with A498; 1.62 µM (inactive) in the test on M14; 41.8 µM (inactive) in the test with UO-31; > 100 µM (inactive) in the test on HOP-92. Also, the GI50 with NCI-H460 is 7.01 µM (inactive); in the test with SN12C, > 75 µM (inactive); with K562, 0.137 µM (active); with HCT-15, 1.15 µM; in the test with MDA-MB-231, > 100 µM (inactive); in the test with SW-620, 19.3 µM (inactive).
In the case of `CCOC(=O)/C(C)=C\[C@@]1(C)O[C@@H](C)[C@@](C)(OC(C)=O)[C@@H]1OC(C)=O`, the GI50 was 37.1 µM (inactive) in the test on DU-145; 44.5 µM (inactive) in the test with MDA-N; 36.8 µM (inactive) in the test with SF-295; 33.8 µM (inactive) in the test on SK-MEL-5; > 100 µM (inactive) in the test with OVCAR-5; 61.8 µM (inactive) with SK-MEL-2. The GI50 is 36.1 µM (inactive) in the test on EKVX; 30 µM (inactive) with MOLT-4; 33.4 µM (inactive) with OVCAR-3; 45.2 µM (inactive) with KM12; 48 µM (inactive) in the test with A498; 61.5 µM (inactive) in the test on M14. Also, the GI50 in the test on HOP-92 was 25.6 µM (inactive); in the test on NCI-H460, 43 µM (inactive); in the test with SN12C, 57.1 µM (inactive); in the test with K562, 38.6 µM (inactive); in the test with HCT-15 it was 17.1 µM; in the test with MDA-MB-231, 57.5 µM (inactive). The GI50 in the test on SW-620 is 67.5 µM (inactive).
As to `CCOC(=O)C(NC(=O)c1cccc(Cl)c1)(N1CCN(c2cc3c(cc2F)c(=O)c(C(=O)O)cn3C2CC2)CC1)C(F)(F)F` (stereo unspecified), the GI50 in the test on DU-145 is 25.4 µM (inactive); with MDA-N, 15.2 µM (inactive); in the test with SF-295, 21.6 µM (inactive); in the test with SK-MEL-5 it was 12.9 µM (inactive); in the test with OVCAR-5 it was 16.7 µM (inactive); in the test on SK-MEL-2 it was 14.7 µM (inactive). The GI50 in the test with EKVX is 18.6 µM (inactive); in the test on MOLT-4, 3.71 µM (inactive); in the test on OVCAR-3, 10.7 µM (inactive); in the test on KM12, 11.5 µM (inactive); with A498, 20 µM (inactive); in the test on M14, 15.9 µM (inactive). The GI50 is 20.1 µM (inactive) in the test on UO-31; 16.3 µM (inactive) with HOP-92; 16.7 µM (inactive) with NCI-H460; 26.9 µM (inactive) with SN12C; 4.78 µM (inactive) in the test with K562; 15.6 µM (inactive) in the test on MDA-MB-231. The GI50 in the test on SW-620 was 12.2 µM (inactive).
With `CCCCSC1=N/C(=C\c2ccccc2O)C(=O)N1`, the GI50 with DU-145 was > 100 µM (inactive); in the test with MDA-N, 76 µM (inactive); in the test on SF-295, 92 µM (inactive); in the test on OVCAR-5, > 100 µM (inactive); with SK-MEL-2 it was 57.8 µM (inactive); in the test on EKVX it was 35.7 µM (inactive). Also, the GI50 with MOLT-4 was 68.9 µM (inactive); in the test with OVCAR-3, > 100 µM (inactive); in the test on KM12, 49.8 µM (inactive); in the test with A498, 28.2 µM (inactive); in the test with M14 it was 71.6 µM (inactive); in the test on UO-31, 21.6 µM (inactive). The GI50 with HOP-92 is 44 µM (inactive); in the test on NCI-H460, 53.2 µM (inactive); in the test on SN12C it was 79.1 µM (inactive); in the test with K562, 78.3 µM (inactive); in the test on HCT-15, 96.6 µM; with MDA-MB-231 it was 34 µM (inactive). In the test on SW-620, the GI50 was > 100 µM (inactive).
For the compound `O=C1CC(c2cccc([N+](=O)[O-])c2)C2(C(=O)NC(=O)NC2=O)C(c2cccc([N+](=O)[O-])c2)C1` (stereo unspecified), the GI50 was 64.4 µM (inactive) in the test with DU-145; > 100 µM (inactive) in the test on MDA-N; 34.5 µM (inactive) in the test on SF-295; > 100 µM (inactive) with SK-MEL-5; > 100 µM (inactive) in the test on OVCAR-5; > 100 µM (inactive) in the test on SK-MEL-2. Further, the GI50 in the test with MOLT-4 was > 100 µM (inactive); in the test on OVCAR-3, 13.9 µM (inactive); with KM12, 27.5 µM (inactive); in the test on A498 it was > 100 µM (inactive); with M14, > 100 µM (inactive); in the test on UO-31, 88.3 µM (inactive). Moreover, the GI50 in the test with HOP-92 was 36.5 µM (inactive); in the test on NCI-H460, > 100 µM (inactive); in the test on SN12C, > 100 µM (inactive); in the test with K562, 67.6 µM (inactive); with HCT-15, 70.5 µM; in the test with MDA-MB-231, > 100 µM (inactive). Also, the GI50 in the test on SW-620 was > 100 µM (inactive).
As to `COc1ccc(C2=Nn3c(nc4sc5c(c4c3=O)CCCC5)SC2)cc1`, the GI50 in the test on DU-145, in the test on MDA-N, in the test with SF-295, in the test on SK-MEL-5, in the test with OVCAR-5 and with EKVX was > 100 µM (inactive) each time. Besides, the GI50 with MOLT-4, with OVCAR-3, with KM12, in the test on A498, with UO-31 and in the test with HOP-92 was > 100 µM (inactive) in each case. The GI50 is > 100 µM (inactive) in the test on NCI-H460; > 100 µM (inactive) in the test on SN12C; > 100 µM (inactive) in the test with K562; more than 100 µM with HCT-15; > 100 µM (inactive) in the test on MDA-MB-231; > 100 µM (inactive) in the test with SW-620.
For `O=C(Cc1ccc2ccccc2c1)NCc1ccc(C(=O)NCCc2ccccc2)cc1`, the GI50 in the test on DU-145, with MDA-N, in the test on SF-295, in the test on SK-MEL-5, with OVCAR-5 and in the test on SK-MEL-2 was > 100 µM (inactive) each time. Moreover, the GI50 in the test on EKVX, in the test with OVCAR-3, in the test on KM12, with A498, in the test on M14 and in the test with UO-31 was > 100 µM (inactive) in each case. Besides, the GI50 in the test with HOP-92 is > 100 µM (inactive); in the test on NCI-H460, > 100 µM (inactive); with SN12C, > 100 µM (inactive); in the test with K562, > 100 µM (inactive); with HCT-15, more than 100 µM; in the test on MDA-MB-231 it was > 100 µM (inactive). Further, in the test with SW-620, the GI50 was > 100 µM (inactive).
In the case of `COC(=O)c1ccccc1/C=C1/Cc2cccc(C)c2C1=O`, the GI50 in the test on DU-145 is > 100 µM (inactive); in the test with MDA-N, > 100 µM (inactive); with SF-295, 42 µM (inactive); with SK-MEL-5, 32.8 µM (inactive); in the test on OVCAR-5, > 100 µM (inactive); in the test with EKVX, > 100 µM (inactive). The GI50 with MOLT-4 is > 100 µM (inactive); in the test on OVCAR-3, > 100 µM (inactive); with KM12 it was > 100 µM (inactive); with A498 it was > 100 µM (inactive); with UO-31 it was > 100 µM (inactive); with HOP-92, 31.8 µM (inactive). In addition, the GI50 in the test on NCI-H460 was > 100 µM (inactive); in the test with SN12C, > 100 µM (inactive); in the test on K562 it was > 100 µM (inactive); in the test on HCT-15, more than 100 µM; in the test with MDA-MB-231, > 100 µM (inactive); in the test on SW-620 it was > 100 µM (inactive).

The GI50 is the concentration that inhibits growth by half.

The values above are taken from ChEMBL document CHEMBL1201862, “PubChem BioAssay data set” (2004).
